Data as given in ChEMBL document CHEMBL5649166, “RIP3 induces apoptosis independent of pronecrotic kinase activity” (Mol Cell, 2014).

Columns and labels:
[1] = biological target: Serine/threonine-protein kinase PAK 5 (Homo sapiens) (UniProt Q9P286); assay: Residual activity of human PAK5 using RRRLSFAEPG as substrate at 1 uM in presence of 32P-ATP by Hotspot assay relative to control
[2] = biological target: T1, Serine/threonine-protein kinase D1 (Homo sapiens) (UniProt Q15139); assay: Residual activity of human PKCmu/PRKD1 using KKLNRTLSVA as substrate at 1 uM in presence of 32P-ATP by Hotspot assay relative to control
T1 sequence (whole entry): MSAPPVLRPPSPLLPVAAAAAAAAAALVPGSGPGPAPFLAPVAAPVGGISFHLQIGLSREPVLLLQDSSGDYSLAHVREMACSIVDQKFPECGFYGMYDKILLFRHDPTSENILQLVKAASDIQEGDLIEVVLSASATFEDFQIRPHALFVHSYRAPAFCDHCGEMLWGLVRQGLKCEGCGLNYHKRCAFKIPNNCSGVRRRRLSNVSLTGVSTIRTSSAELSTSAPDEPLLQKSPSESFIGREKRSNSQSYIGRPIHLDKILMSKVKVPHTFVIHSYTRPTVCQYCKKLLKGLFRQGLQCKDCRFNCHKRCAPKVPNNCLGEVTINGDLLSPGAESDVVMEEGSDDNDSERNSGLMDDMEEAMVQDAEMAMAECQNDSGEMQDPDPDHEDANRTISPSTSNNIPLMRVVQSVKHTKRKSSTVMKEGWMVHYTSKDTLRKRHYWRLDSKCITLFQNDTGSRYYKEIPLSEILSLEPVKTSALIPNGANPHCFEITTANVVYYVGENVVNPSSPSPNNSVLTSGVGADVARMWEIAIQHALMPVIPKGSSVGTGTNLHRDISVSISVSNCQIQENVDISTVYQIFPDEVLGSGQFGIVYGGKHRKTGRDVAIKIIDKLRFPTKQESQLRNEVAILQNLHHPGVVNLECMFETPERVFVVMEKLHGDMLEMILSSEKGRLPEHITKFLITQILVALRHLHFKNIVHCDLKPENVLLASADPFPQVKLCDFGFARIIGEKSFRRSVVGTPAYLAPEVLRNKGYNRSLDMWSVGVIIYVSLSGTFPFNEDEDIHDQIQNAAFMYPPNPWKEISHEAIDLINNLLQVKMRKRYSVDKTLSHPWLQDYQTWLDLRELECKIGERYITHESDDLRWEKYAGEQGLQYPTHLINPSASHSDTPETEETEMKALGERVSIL

[3] = biological target: Calcium/calmodulin-dependent protein kinase type II subunit delta (Homo sapiens) (UniProt Q13557); assay: Inhibition of human CAMK2d using KKLNRTLSFAEPG as substrate at 1 uM in presence of 32P-ATP by Hotspot assay relative to control; values are per cent of control
[4] = biological target: Dual specificity tyrosine-phosphorylation-regulated kinase 1B (Homo sapiens) (UniProt Q9Y463); assay: Inhibition of human DYRK1B using RRRFRPASPLRGPPK as substrate at 1 uM in presence of 32P-ATP by Hotspot assay relative to control; values are per cent of control
[5] = biological target: Ribosomal protein S6 kinase alpha-4 (Homo sapiens) (UniProt O75676); assay: Inhibition of human MSK2/RPS6KA4 using GRPRTSSFAEG as substrate at 1 uM in presence of 32P-ATP by Hotspot assay relative to control; values are per cent of control
[6] = biological target: Dual specificity protein kinase CLK4 (Homo sapiens) (UniProt Q9HAZ1); assay: Inhibition of human CLK4 using myelin basic protein as substrate at 1 uM in presence of 32P-ATP by Hotspot assay relative to control; values are per cent of control
[7] = biological target: T2, Mitogen-activated protein kinase kinase kinase 3 (Homo sapiens) (UniProt Q99759); assay: Inhibition of human MEKK3 using myelin basic protein as substrate at 1 uM in presence of 32P-ATP by Hotspot assay relative to control; values are per cent of control
T2 sequence (whole entry): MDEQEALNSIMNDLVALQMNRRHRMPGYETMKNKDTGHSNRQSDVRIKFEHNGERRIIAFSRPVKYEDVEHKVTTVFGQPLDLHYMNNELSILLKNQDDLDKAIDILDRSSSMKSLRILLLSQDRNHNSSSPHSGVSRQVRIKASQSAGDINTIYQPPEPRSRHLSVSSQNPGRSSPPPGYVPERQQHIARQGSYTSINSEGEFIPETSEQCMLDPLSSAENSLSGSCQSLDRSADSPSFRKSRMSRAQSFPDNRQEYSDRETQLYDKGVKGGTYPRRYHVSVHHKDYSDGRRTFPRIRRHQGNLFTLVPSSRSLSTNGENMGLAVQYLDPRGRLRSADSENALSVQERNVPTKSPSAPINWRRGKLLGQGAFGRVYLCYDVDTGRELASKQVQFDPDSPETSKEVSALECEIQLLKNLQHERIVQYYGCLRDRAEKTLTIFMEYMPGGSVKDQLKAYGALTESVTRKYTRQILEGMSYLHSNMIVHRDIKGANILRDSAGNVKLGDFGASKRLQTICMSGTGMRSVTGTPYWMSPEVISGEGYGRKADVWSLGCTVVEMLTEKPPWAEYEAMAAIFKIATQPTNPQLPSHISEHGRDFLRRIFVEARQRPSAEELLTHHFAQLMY

[8] = biological target: Calcium/calmodulin-dependent protein kinase kinase 1 (Homo sapiens) (UniProt Q8N5S9); assay: Inhibition of human CAMKK1 using myelin basic protein as substrate at 1 uM in presence of 32P-ATP by Hotspot assay relative to control; values are per cent of control
[9] = biological target: Vascular endothelial growth factor receptor 3 (Homo sapiens) (UniProt P35916); assay: Inhibition of human FLT4/VEGFR3 using poly[Glu:Tyr] (4:1) as substrate at 1 uM in presence of 32P-ATP by Hotspot assay relative to control; values are per cent of control
Sequence of Vascular endothelial growth factor receptor 3 (Homo sapiens) (P35916 whole entry): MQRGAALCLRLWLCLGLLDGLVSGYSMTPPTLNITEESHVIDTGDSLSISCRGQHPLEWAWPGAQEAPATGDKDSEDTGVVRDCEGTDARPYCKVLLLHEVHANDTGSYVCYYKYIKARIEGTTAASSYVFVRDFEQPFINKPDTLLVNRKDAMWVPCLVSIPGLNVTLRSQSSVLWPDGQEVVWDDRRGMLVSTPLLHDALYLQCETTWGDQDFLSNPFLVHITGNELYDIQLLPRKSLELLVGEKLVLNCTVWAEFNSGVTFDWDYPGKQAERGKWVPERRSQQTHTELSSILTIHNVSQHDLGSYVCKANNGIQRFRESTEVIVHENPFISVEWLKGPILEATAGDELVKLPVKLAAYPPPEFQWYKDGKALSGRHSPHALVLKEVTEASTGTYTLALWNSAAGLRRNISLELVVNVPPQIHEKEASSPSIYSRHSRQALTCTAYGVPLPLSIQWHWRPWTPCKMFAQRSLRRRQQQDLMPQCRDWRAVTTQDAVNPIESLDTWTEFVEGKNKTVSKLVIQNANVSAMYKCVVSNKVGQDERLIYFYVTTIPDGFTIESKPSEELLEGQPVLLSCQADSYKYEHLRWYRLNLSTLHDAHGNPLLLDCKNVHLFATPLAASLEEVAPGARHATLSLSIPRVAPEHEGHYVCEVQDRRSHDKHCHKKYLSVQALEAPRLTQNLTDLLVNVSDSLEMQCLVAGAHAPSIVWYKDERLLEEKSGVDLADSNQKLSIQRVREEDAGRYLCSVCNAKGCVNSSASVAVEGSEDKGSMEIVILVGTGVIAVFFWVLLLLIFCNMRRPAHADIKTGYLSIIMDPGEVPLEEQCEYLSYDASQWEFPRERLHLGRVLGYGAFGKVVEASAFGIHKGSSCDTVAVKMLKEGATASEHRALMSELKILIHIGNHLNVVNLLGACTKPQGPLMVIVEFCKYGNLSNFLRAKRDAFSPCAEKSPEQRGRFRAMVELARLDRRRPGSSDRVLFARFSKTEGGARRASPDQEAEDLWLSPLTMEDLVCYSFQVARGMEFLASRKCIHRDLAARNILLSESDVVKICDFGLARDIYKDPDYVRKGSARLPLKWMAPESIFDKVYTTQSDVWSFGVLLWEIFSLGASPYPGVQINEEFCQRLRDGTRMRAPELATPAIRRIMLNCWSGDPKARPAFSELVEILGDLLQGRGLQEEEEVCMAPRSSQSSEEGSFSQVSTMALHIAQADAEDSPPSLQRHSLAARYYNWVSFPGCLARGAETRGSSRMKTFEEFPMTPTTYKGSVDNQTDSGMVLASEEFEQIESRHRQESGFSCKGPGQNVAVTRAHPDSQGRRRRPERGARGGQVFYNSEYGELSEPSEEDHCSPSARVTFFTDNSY

Sequence of Calcium/calmodulin-dependent protein kinase kinase 1 (Homo sapiens) (Q8N5S9 whole entry, looked up): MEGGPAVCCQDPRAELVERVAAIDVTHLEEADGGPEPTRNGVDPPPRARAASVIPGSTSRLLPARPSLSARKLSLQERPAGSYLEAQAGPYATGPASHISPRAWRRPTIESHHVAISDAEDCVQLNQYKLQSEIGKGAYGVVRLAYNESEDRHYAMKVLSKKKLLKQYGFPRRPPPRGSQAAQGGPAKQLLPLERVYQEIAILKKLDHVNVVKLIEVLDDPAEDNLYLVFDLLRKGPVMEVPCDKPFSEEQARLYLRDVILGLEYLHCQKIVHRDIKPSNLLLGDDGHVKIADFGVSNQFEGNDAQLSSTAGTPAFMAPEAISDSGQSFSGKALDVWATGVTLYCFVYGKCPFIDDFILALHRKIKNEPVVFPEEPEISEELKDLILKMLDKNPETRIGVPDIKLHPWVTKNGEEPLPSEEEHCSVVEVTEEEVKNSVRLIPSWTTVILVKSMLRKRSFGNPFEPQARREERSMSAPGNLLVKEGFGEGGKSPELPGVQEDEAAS
Sequence of Dual specificity protein kinase CLK4 (Homo sapiens) (Q9HAZ1 whole entry, looked up): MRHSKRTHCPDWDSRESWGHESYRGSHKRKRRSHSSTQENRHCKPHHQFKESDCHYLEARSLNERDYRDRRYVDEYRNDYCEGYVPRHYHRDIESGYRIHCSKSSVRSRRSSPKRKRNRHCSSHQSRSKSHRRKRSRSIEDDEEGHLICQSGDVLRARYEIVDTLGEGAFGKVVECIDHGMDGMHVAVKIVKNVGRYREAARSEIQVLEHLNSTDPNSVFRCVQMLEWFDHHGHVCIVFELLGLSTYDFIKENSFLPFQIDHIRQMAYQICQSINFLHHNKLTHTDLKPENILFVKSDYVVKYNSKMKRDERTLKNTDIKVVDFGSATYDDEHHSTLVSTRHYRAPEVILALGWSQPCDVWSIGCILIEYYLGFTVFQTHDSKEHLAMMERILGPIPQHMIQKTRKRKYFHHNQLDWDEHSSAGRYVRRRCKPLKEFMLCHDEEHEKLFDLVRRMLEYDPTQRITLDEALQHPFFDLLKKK
Sequence of Calcium/calmodulin-dependent protein kinase type II subunit delta (Homo sapiens) (Q13557 whole entry): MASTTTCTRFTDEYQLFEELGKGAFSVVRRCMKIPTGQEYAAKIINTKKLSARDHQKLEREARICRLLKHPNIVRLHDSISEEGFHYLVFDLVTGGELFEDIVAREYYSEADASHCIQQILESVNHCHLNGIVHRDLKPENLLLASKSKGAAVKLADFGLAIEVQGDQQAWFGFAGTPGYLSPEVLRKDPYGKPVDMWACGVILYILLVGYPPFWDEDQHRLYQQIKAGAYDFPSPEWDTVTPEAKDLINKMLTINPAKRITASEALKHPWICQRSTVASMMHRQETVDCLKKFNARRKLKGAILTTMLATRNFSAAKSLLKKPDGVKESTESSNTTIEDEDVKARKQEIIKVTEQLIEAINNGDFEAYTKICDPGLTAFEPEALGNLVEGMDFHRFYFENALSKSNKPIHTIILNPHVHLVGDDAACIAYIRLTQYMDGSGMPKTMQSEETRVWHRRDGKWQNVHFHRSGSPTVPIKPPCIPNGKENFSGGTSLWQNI
Sequence of Serine/threonine-protein kinase PAK 5 (Homo sapiens) (Q9P286 whole entry, looked up): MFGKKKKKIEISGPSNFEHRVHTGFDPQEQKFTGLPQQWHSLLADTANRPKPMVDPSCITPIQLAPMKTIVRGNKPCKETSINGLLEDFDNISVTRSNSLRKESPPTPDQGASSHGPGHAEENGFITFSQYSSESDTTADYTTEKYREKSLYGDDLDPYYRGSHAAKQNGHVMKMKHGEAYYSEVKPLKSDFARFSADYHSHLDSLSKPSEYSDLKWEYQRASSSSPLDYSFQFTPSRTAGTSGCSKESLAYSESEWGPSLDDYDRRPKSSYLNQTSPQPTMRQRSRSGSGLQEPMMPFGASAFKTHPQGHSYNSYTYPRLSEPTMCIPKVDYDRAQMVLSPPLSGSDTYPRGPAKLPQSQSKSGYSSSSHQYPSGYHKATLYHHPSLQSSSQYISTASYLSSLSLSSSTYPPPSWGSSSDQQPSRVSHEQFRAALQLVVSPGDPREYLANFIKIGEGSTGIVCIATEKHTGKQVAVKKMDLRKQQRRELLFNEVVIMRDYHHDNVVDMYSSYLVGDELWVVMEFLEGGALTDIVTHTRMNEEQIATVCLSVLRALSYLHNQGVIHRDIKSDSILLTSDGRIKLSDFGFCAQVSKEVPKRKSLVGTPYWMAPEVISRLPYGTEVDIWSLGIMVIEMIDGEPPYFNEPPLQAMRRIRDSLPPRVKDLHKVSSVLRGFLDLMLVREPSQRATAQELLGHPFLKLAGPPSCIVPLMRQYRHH
Sequence of Dual specificity tyrosine-phosphorylation-regulated kinase 1B (Homo sapiens) (Q9Y463 whole entry, looked up): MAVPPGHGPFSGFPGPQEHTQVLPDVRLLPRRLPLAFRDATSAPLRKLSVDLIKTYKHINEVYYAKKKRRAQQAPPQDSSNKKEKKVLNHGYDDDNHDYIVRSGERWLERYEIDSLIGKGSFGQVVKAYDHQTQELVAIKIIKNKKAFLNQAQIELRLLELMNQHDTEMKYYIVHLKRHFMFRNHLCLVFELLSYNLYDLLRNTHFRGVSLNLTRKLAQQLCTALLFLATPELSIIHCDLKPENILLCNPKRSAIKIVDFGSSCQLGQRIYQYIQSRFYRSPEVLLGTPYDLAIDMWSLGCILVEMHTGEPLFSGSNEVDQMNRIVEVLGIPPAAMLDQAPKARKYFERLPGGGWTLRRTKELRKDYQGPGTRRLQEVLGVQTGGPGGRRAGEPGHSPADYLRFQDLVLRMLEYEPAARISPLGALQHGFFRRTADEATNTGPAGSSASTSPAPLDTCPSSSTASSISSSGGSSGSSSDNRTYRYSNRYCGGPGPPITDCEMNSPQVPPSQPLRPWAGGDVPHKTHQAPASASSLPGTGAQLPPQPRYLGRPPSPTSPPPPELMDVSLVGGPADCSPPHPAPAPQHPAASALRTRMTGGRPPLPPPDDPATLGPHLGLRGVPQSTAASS
Sequence of Ribosomal protein S6 kinase alpha-4 (Homo sapiens) (O75676 whole entry, looked up): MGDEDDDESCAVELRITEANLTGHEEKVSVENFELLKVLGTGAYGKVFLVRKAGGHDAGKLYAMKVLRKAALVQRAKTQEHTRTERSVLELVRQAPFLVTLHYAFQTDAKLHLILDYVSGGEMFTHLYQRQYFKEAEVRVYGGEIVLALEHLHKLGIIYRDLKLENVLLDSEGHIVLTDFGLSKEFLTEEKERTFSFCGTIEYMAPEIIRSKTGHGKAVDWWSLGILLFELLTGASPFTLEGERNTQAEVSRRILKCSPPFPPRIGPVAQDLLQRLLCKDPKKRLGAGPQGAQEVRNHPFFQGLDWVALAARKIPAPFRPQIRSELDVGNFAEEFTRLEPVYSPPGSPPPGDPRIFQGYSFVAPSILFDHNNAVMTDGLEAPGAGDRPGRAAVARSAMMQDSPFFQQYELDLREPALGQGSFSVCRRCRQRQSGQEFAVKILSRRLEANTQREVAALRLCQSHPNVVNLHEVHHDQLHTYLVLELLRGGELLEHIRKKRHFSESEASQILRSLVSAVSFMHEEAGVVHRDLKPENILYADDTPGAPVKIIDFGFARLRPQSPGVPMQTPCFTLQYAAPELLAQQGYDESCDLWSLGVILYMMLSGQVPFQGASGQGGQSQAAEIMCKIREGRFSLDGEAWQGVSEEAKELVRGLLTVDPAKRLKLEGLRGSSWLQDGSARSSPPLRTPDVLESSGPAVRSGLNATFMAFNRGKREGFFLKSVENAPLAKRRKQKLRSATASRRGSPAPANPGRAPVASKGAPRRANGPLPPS

Cc1cc(-c2cnc(N)c3c(-c4ccc5scnc5c4)csc23)n(C)n1
residual activity [1]: 99.5%
residual activity [2]: 51.6%
residual activity [3]: 104%
residual activity [4]: 99.5%
residual activity [5]: 99.3%
residual activity [6]: 84.6%
residual activity [7]: 95%
residual activity [8]: 98.6%
residual activity [9]: 103%

CNC(=O)c1ccc2c(c1)ncn2-c1ccc(CC(=O)OC(C)(C)C)cc1
residual activity [1]: 95.7%
residual activity [2]: 99.5%
residual activity [3]: 97.3%
residual activity [4]: 98.4%
residual activity [5]: 96.9%
residual activity [6]: 93.8%
residual activity [7]: 96%
residual activity [8]: 77.3%
residual activity [9]: 78.8%

CC(C)S(=O)(=O)c1ccc2nccc(Nc3ccc4scnc4c3)c2c1
residual activity [1]: 105%
residual activity [2]: 98.9%
residual activity [3]: 98.1%
residual activity [4]: 100%
residual activity [5]: 95.4%
residual activity [6]: 92.2%
residual activity [7]: 92.3%
residual activity [8]: 99.3%
residual activity [9]: 83.1%
